{"source": "paper PMC4415882", "about": "(Biochemistry, 2013)", "key": {"[1]": {"target": "NPP (nucleotide pyrophosphatase/phosphodiesterase) (Xanthomonas citri, UniProt A0A0U5FM15, T90S)", "conditions": "read-out: average; average over substrates pNPP, Me-pNPP, bis-pNPP, dT-5'-pNPP (subsaturating); 0.1 M Tris-HCl pH 8.0, 0.5 M NaCl, 100 µM ZnCl2, 25 °C; competitive"}, "[2]": {"target": "NPP (nucleotide pyrophosphatase/phosphodiesterase) (Xanthomonas citri, UniProt A0A0U5FM15, L123A)", "conditions": "read-out: average; average over substrates pNPP, Me-pNPP, bis-pNPP, dT-5'-pNPP (subsaturating); 0.1 M Tris-HCl pH 8.0, 0.5 M NaCl, 100 µM ZnCl2, 25 °C; competitive"}}, "data": [{"smiles": "[O]=[V]([OH])([OH])[OH]", "note": "[vanadate]", "values": [{"measurement": "Ki", "setting": "[1]", "value": "340 ± 140", "unit": "µM"}, {"measurement": "Ki", "setting": "[2]", "value": "154 ± 8", "unit": "µM"}]}]}
